IC50 data for 35 compounds are collected here from BindingDB's records for doi:10.1016/j.bmcl.2003.10.030 (Pfizer, 2003).

A short description of test [1]: Inhibitory activity against Vascular endothelial growth factor receptor.
Test in test [2]: as above
The source holds these as a separate data set.

Test [3] concerns the target Vascular endothelial growth factor receptor 1 (Homo sapiens, UniProt P17948). As to the kind of experiment: ChEBML_213951. From the text: Inhibitory activity against Vascular endothelial growth factor receptor

As usually defined, the IC50 is the concentration needed to halve the response being measured.

Sequence of Vascular endothelial growth factor receptor 1 (P17948 whole entry): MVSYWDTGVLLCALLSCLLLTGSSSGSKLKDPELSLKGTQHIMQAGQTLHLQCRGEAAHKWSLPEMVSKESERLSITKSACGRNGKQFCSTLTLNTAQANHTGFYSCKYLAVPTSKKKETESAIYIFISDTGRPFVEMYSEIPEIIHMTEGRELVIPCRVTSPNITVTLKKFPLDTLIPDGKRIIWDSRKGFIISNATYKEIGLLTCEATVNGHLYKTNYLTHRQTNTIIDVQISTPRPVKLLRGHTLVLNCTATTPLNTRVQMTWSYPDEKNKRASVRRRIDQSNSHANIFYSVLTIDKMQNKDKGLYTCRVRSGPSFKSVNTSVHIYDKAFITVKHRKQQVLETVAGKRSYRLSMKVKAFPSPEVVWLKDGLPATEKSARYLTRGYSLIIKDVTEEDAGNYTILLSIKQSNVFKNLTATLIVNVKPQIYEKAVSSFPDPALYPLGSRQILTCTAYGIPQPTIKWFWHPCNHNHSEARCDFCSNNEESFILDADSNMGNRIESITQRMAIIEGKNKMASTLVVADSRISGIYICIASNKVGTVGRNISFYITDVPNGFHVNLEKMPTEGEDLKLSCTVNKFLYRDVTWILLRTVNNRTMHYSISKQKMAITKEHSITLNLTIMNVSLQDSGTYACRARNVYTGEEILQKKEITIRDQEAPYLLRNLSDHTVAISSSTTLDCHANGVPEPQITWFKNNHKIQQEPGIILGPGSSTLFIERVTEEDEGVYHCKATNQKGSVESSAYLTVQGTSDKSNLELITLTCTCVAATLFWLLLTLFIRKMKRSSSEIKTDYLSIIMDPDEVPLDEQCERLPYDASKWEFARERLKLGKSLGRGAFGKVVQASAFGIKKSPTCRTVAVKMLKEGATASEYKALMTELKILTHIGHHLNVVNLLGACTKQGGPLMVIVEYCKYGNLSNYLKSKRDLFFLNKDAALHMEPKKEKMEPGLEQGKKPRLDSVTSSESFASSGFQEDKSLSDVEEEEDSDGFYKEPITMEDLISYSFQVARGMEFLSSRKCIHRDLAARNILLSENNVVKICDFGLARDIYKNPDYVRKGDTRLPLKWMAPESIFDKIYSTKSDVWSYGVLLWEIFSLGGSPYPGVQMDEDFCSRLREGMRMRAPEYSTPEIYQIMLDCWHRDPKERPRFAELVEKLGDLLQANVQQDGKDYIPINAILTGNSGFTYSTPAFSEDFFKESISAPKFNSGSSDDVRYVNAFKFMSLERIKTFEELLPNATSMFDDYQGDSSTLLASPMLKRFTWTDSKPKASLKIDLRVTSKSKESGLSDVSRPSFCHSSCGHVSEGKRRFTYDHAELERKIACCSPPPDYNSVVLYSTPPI

For `c1ccc(NCCN(c2cc3ncnc(Nc4ccc5[nH]ccc5c4)c3s2)n2cccc2)cc1` [N*4*-(1H-Indol-5-yl)-N*6*-(2-phenylamino-ethyl)-N*6*-pyrrol-1-yl-thieno[3,2-d]pyrimidine-4,6-diamine], the concentration for half-maximal inhibition (IC50) in test [1] was determined as 43 nM.
Compound `CCCNC(=O)c1cc2ncnc(Nc3ccc4[nH]ccc4c3)c2s1` [4-(1H-Indol-5-ylamino)-thieno[3,2-d]pyrimidine-6-carboxylic acid propylamide] showed an IC50 in test [1] of 2000 nM.
The same measure, in the same setting: under `Nc1ncnc2cc(-c3ccccc3)sc12` [6-Phenyl-thieno[3,2-d]pyrimidin-4-ylamine] stands more than 1250 nM; under `CNc1ccc(Nc2ncnc3cc(-c4ccccc4)sc23)cc1` [N-Methyl-N'-(6-phenyl-thieno[3,2-d]pyrimidin-4-yl)-benzene-1,4-diamine], 190 nM.
Regarding `c1ccc(Nc2ccc(Nc3ncnc4cc(-c5ccccc5)sc34)cc2)cc1` [N-Phenyl-N'-(6-phenyl-thieno[3,2-d]pyrimidin-4-yl)-benzene-1,4-diamine], half-maximal inhibition in test [1] (IC50) required 390 nM.
The compound `c1ccc(-c2cc3ncnc(Nc4ccc5[nH]ccc5c4)c3s2)cc1` [(1H-Indol-5-yl)-(6-phenyl-thieno[3,2-d]pyrimidin-4-yl)-amine] showed an IC50 in test [2] of 48 nM.
`NC(=O)c1ccc(Nc2ncnc3cc(-c4ccccc4)sc23)cc1` [4-(6-Phenyl-thieno[3,2-d]pyrimidin-4-ylamino)-benzamide] showed a half-inhibitory concentration (IC50) in test [1] of 250 nM.
Compound `Cc1cc2cc(Nc3ccnc4cc(-c5ccc(CN6CCOCC6)cc5)sc34)ccc2[nH]1` [(2-Methyl-1H-indol-5-yl)-[2-(4-morpholin-4-ylmethyl-phenyl)-thieno[3,2-b]pyridin-7-yl]-amine] came in with an IC50 in test [1] of 5 nM.
Take `CC(=O)NCCNCc1ccc(-c2cc3ncnc(Nc4ccc5[nH]ccc5c4)c3s2)cc1` [N-(2-{4-[4-(1H-Indol-5-ylamino)-thieno[3,2-d]pyrimidin-6-yl]-benzylamino}-ethyl)-acetamide]: half-maximal inhibition in test [1] (IC50) was put at 4 nM.
In test [1], `Cc1c[nH]c2ccc(Nc3ncnc4cc(-c5ccccc5)sc34)cc12` [(3-Methyl-1H-indol-5-yl)-(6-phenyl-thieno[3,2-d]pyrimidin-4-yl)-amine] yielded a 50% inhibitory concentration (IC50) of 290 nM.
Same read-out and setting: under `Cc1cc2cc(Nc3ccnc4cc(-c5ccc(CNCCCO)cc5)sc34)ccc2[nH]1` [3-{4-[7-(2-Methyl-1H-indol-5-ylamino)-thieno[3,2-b]pyridin-2-yl]-benzylamino}-propan-1-ol] stands 5 nM.
In test [1], `O=C(c1ccccc1)c1cc2ncnc(Nc3ccc4[nH]ccc4c3)c2s1` [[4-(1H-Indol-5-ylamino)-thieno[3,2-d]pyrimidin-6-yl]-phenyl-methanone] showed an IC50 of 770 nM. Compared with the last compound, the IC50 is about 150-fold higher.
With `c1csc(-c2cc3ncnc(Nc4ccc5[nH]ccc5c4)c3s2)c1` [(1H-Indol-5-yl)-(6-thiophen-2-yl-thieno[3,2-d]pyrimidin-4-yl)-amine], in test [3], the IC50 is 130 nM.
`OCCCNCc1ccc(-c2cc3nccc(Nc4ccc5[nH]ccc5c4)c3s2)cc1` [3-{4-[7-(1H-Indol-5-ylamino)-thieno[3,2-b]pyridin-2-yl]-benzylamino}-propan-1-ol] registered an IC50 in test [1] of 4 nM. This counts as single-digit nanomolar.
In test [1], `OCc1ccc(-c2cc3ncnc(Nc4ccc5[nH]ccc5c4)c3s2)cc1` [{4-[4-(1H-Indol-5-ylamino)-thieno[3,2-d]pyrimidin-6-yl]-phenyl}-methanol] came in with an IC50 of 56 nM.
`c1ccc(CNc2ncnc3cc(-c4ccccc4)sc23)cc1` [Benzyl-(6-phenyl-thieno[3,2-d]pyrimidin-4-yl)-amine] showed a half-maximal inhibitory concentration (IC50) in test [1] of more than 2500 nM.
In test [1], `O=C(Cc1cc2ncnc(Nc3ccc4[nH]ccc4c3)c2s1)c1ccccc1` [2-[4-(1H-Indol-5-ylamino)-thieno[3,2-d]pyrimidin-6-yl]-1-((E)-phenyl)-ethenol] returned an IC50 of 2210 nM.
`Brc1cc2ncnc(Nc3ccc4[nH]ccc4c3)c2s1` [(6-Bromo-thieno[3,2-d]pyrimidin-4-yl)-(1H-indol-5-yl)-amine] yielded a half-maximal inhibitory concentration (IC50) in test [1] of 220 nM. Against the preceding compound, the IC50 is about 10-fold lower.
The compound `Cc1cc2cc(Nc3ccnc4cc(-c5ccc(CNCCO)cc5)sc34)ccc2[nH]1` [2-{4-[7-(2-Methyl-1H-indol-5-ylamino)-thieno[3,2-b]pyridin-2-yl]-benzylamino}-ethanol] returned an IC50 in test [1] of 4 nM.
With `c1nc(Nc2ccc3[nH]ccc3c2)c2sccc2n1` [(1H-Indol-5-yl)-thieno[3,2-d]pyrimidin-4-yl-amine], the midpoint of inhibition in test [1], the IC50, lay at 1410 nM.
Same read-out and setting: the figure for `c1ccc(-c2cc3ncnc(Nc4ccc5[nH]ncc5c4)c3s2)cc1` [(1H-Indazol-5-yl)-(6-phenyl-thieno[3,2-d]pyrimidin-4-yl)-amine] is 620 nM; for `Cn1ccc2cc(Nc3ncnc4cc(-c5ccccc5)sc34)ccc21` [(1-Methyl-1H-indol-5-yl)-(6-phenyl-thieno[3,2-d]pyrimidin-4-yl)-amine] it is more than 2500 nM.
Regarding `CN(C)c1ccc(Nc2ncnc3cc(-c4ccccc4)sc23)cc1` [N,N-Dimethyl-N'-(6-phenyl-thieno[3,2-d]pyrimidin-4-yl)-benzene-1,4-diamine], half-maximal inhibition in test [1] (IC50) was put at 500 nM.
Consider `OCCNCc1ccc(-c2cc3nccc(Nc4ccc5[nH]ccc5c4)c3s2)cc1` [2-{4-[7-(1H-Indol-5-ylamino)-thieno[3,2-b]pyridin-2-yl]-benzylamino}-ethanol], for which the IC50 in test [1] was found to be 6 nM.
Still for that read-out and setting: under `c1cc(Nc2ccc3[nH]ccc3c2)c2sc(-c3ccc(CN4CCOCC4)cc3)cc2n1` [(1H-Indol-5-yl)-[2-(4-morpholin-4-ylmethyl-phenyl)-thieno[3,2-b]pyridin-7-yl]-amine] stands 5 nM; under `Cc1cc2cc(Nc3ccnc4cc(-c5ccc(CN(C)CCO)cc5)sc34)ccc2[nH]1` [2-(Methyl-{4-[7-(2-methyl-1H-indol-5-ylamino)-thieno[3,2-b]pyridin-2-yl]-benzyl}-amino)-ethanol], 3 nM; under `Cc1cc2cc(Nc3ncnc4cc(-c5ccccc5)sc34)ccc2[nH]1` [(2-Methyl-1H-indol-5-yl)-(6-phenyl-thieno[3,2-d]pyrimidin-4-yl)-amine], 140 nM.
`CN(CCO)Cc1ccc(-c2cc3nccc(Nc4ccc5[nH]ccc5c4)c3s2)cc1` [2-({4-[7-(1H-Indol-5-ylamino)-thieno[3,2-b]pyridin-2-yl]-benzyl}-methyl-amino)-ethanol]: the midpoint of inhibition in test [1], the IC50, lay at 4 nM. This IC50 is about 35-fold lower than that of the compound before.
In test [1], `CC(C)(CO)NCc1ccc(-c2cc3ncnc(Nc4ccc5[nH]ccc5c4)c3s2)cc1` [2-{4-[4-(1H-Indol-5-ylamino)-thieno[3,2-d]pyrimidin-6-yl]-benzylamino}-2-methyl-propan-1-ol] came in with a half-maximal inhibitory concentration (IC50) of 25 nM.
`c1csc(-c2cc3nccc(Nc4ccc5[nH]ccc5c4)c3s2)c1` [(1H-Indol-5-yl)-(2-thiophen-2-yl-thieno[3,2-b]pyridin-7-yl)-amine]: the IC50 in test [1] was found to be 132 nM.
In turn, `CC(=O)NCCNCc1ccc(-c2cc3nccc(Nc4ccc5[nH]ccc5c4)c3s2)cc1` [N-(2-{4-[7-(1H-Indol-5-ylamino)-thieno[3,2-b]pyridin-2-yl]-benzylamino}-ethyl)-acetamide] yielded a half-inhibitory concentration (IC50) in test [1] of 24 nM.
`NCc1ccc(-c2cc3ncnc(Nc4ccc5[nH]ccc5c4)c3s2)cc1` [[6-(4-Aminomethyl-phenyl)-thieno[3,2-d]pyrimidin-4-yl]-(1H-indol-5-yl)-amine]: the midpoint of inhibition in test [1], the IC50, lay at 18 nM.
In test [1], `Cc1cc2cc(Nc3ccnc4cc(-c5ccc(CNCCOCCO)cc5)sc34)ccc2[nH]1` [2-(2-{4-[7-(2-Methyl-1H-indol-5-ylamino)-thieno[3,2-b]pyridin-2-yl]-benzylamino}-ethoxy)-ethanol] registered an IC50 of 5 nM. Against the preceding compound, the IC50 is about 3.6-fold lower.
The compound `c1ccc(-c2cc3ncnc(Nc4ccc5nn[nH]c5c4)c3s2)cc1` [(1H-Benzotriazol-5-yl)-(6-phenyl-thieno[3,2-d]pyrimidin-4-yl)-amine] had an IC50 in test [1] of 470 nM.
Turning to `c1ccc(CCCN(c2cc3ncnc(Nc4ccc5[nH]ccc5c4)c3s2)n2ccnc2)cc1` [N*6*-Imidazol-1-yl-N*4*-(1H-indol-5-yl)-N*6*-(3-phenyl-propyl)-thieno[3,2-d]pyrimidine-4,6-diamine], 4 nM corresponded to half-maximal inhibition in test [2] (IC50). This counts as single-digit nanomolar.
